Measurements reported in patent publication US20240400507A1, “Substituted Indole Compounds and the Use Thereof” (TROBIO THERAPEUTICS PTY LTD, priority 2021, published 2024).
Entries after “also recorded” stand apart in the source; their conditions may differ.

These molecules were tested against T1, Tpm4.2-containing actin microfilaments (Mus musculus, UniProt Q6IRU2) (assay: Disruption of Tpm4.2-containing actin microfilaments in PMEF cells, images assessed visually). Settings: PMEF cells stably expressing Tpm4.2 labelled with the NeonGreen fluorophore (footnote a).
T1 construct: investigated in primary mouse embryonic fibroblast (PMEF) cells; endogenous in cells; host or cells: primary mouse embryonic fibroblast (PMEF) cells
T1 sequence (Q6IRU2 whole entry): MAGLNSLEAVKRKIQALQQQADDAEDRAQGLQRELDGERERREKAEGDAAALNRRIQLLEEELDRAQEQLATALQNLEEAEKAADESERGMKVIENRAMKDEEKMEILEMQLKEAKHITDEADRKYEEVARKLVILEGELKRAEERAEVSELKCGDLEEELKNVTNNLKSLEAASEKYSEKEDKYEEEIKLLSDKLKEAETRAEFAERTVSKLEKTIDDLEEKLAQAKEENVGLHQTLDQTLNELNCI
Format: cell-based

Row | SMILES | Filament Disruption (minimum test concentration at which filament disruption was observed)
1 | CC(CO)(CO)NCCn1ccc2ccc(OCCc3ccccc3F)cc21 [Compound 2, 2-((2-(6-(2-fluorophenethoxy)-1H-indol-1-yl)ethyl)amino)-2-methylpropane-1,3-diol] | 4.0^a μM
2 | CC(CO)(CO)NCCn1ccc2ccc(OCCc3cccc(F)c3)cc21 [Compound 3, 2-((2-(6-(3-fluorophenethoxy)-1H-indol-1-yl)ethyl)amino)-2-methylpropane-1,3-diol] | 4.0^a μM
3 | CC(CO)(CO)NCCn1ccc2ccc(OCCc3ccccc3)cc21 [Compound 1, 2-((2-(6-phenethoxy-1H-indol-1-yI)ethyl)amino)-2-methylpropane-1,3-diol] | 4.0^a μM
4 | CC(CO)(CO)NCCn1ccc2ccc(OCCc3ccc(F)cc3)cc21 [Compound 4, 2-((2-(6-(4-fluorophenethoxy)-1H-indol-1-yl)ethyl)amino)-2-methylpropane-1,3-diol] | 3.0^a μM

What follows are molecules tested against T1, Tpm4.2-containing actin microfilaments in the same assay as above. Settings: PMEF cells, treatment versus control condition.
Format: cell-based
Procedure: Example 2—Anti-tropomyosin activity of compounds of formula (I) The ability of compounds of the disclosure to disrupt Tpm4.2-containing actin microfilaments was investigated in primary mouse embryonic fibroblast (PMEF) cells. Cells were seeded at 3×10^4 cells per well in a volume of 1000 μL complete media onto a 12 well plate containing 13 mm coverslips and left to plate down for 24 hours prior to treatment. Cells were then treated with DMSO and two concentrations of the test compounds. 24 hours post-treatment, cells were fixed with 16% paraformaldehyde (PBS) and stained with rabbit polyclonal anti-tropomyosin 6/9d antibody to visualise Tpm4.2. Single plane images were obtained using the Olympus IX83 epi-fluorescence microscope. Ten fields of view were collected for both Tpm4.2 fluorophore and 488-Atto-Phalloidin with each treatment condition. The images were assessed visually to determine if the Tpm4.2 filament network had been disrupted under the treatment condition (Table 1).

Row | SMILES | Effect on Tpm4.2 filament network in representative image (FIG. 1)
5 | CC(CO)(CO)NCCn1ccc2ccc(NCCc3ccc(F)cc3)cc21 [Compound 13, 2-((2-(6-((4-fluorophenethyl)amino)-1H-indol-1-yl)ethyl)amino)-2-methylpropane-1,3-diol] | parallel filament bundles observed in the control condition are lost and punctate aggregations of Tpm4.2 are observed near the nucleus; also recorded: disruption of the Tpm4.2 filament network

Same assay, conditions: primary mouse embryonic fibroblast (PMEF) cells, 24 hours treatment, anti-tropomyosin antibody staining of Tpm4.2

Row | Filament Disruption (minimum test concentration at which filament disruption was observed) [µM] | SMILES
6 | 7.5 | Cc1ccccc1CCOc1ccc2ccn(CCNC(C)(CO)CO)c2c1 [Compound 16, 2-methyl-2-((2-(6-(2-methylphenethoxy)-1H-indol-1-yl)ethyl)amino)propane-1,3-diol]
7 | 2.0 | COc1cccc(CCOc2ccc3ccn(CCNC(C)(CO)CO)c3c2)c1 [Compound 20, 2-methyl-2-((2-(6-(3-methoxyphenethoxy)-1H-indol-1-yl)ethyl)amino)propane-1,3-diol]
8 | 7.0 | COc1ccccc1CCOc1ccc2ccn(CCNC(C)(CO)CO)c2c1 [Compound 19, 2-methyl-2-((2-(6-(2-methoxyphenethoxy)-1H-indol-1-yl)ethyl)amino)propane-1,3-diol]
9 | 2.5 | COc1ccc(CCOc2ccc3ccn(CCNC(C)(CO)CO)c3c2)cc1 [Compound 21, 2-methyl-2-((2-(6-(4-methoxyphenethoxy)-1H-indol-1-yl)ethyl)amino)propane-1,3-diol]
10 | 2.5 | CC(CO)(CO)NCCn1ccc2ccc(OCCc3ccc(F)c(F)c3)cc21 [Compound 24, 2-methyl-2-((2-(6-(3,4-difluorophenethoxy)-1H-indol-1-yl)ethyl)amino)propane-1,3-diol]
11 | 2.5 | CC(CO)(CO)NCCn1ccc2ccc(OCCc3ccccc3C(F)(F)F)cc21 [Compound 22, 2-methyl-2-((2-(6-(2-(trifluoromethyl)phenethoxy)-1H-indol-1-yl)ethyl)amino)propane-1,3-diol]
12 | 2.5 | Cc1ccc(CCOc2ccc3ccn(CCNC(C)(CO)CO)c3c2)cc1C [Compound 25, 2-methyl-2-((2-(6-(3,4-dimethylphenethoxy)-1H-indol-1-yl)ethyl)amino)propane-1,3-diol]
13 | 6.5 | CC(CO)(CO)NCCn1ccc2ccc(C(=O)OCc3ccc(F)cc3)cc21 [Compound 15, 4-fluorobenzyl 1-(2-((1,3-dihydroxy-2-methylpropan-2-yl)amino)ethyl)-1H-indole-6-carboxylate]
14 | 5.0 | Cc1ccc(CCOc2ccc3ccn(CCNC(C)(CO)CO)c3c2)cc1 [Compound 18, 2-methyl-2-((2-(6-(4-methylphenethoxy)-1H-indol-1-yl)ethyl)amino)propane-1,3-diol]
15 | 2.0 | Cc1cccc(CCOc2ccc3ccn(CCNC(C)(CO)CO)c3c2)c1 [Compound 17, 2-methyl-2-((2-(6-(3-methylphenethoxy)-1H-indol-1-yl)ethyl)amino)propane-1,3-diol]

The remaining lines, values behind:

Row | SMILES | Filament Disruption (minimum test concentration at which filament disruption was observed) [µM]
16 | C[C@@H](CO)NCCn1ccc2ccc(OCCc3ccc(F)cc3)cc21 [Compound 7, (S)-2-((2-(6-(4-fluorophenethoxy)-1H-indol-1-yl)ethyl)amino)propan-1-ol] | 2.0
17 | CC(C)(CO)NCCn1ccc2ccc(OCCc3ccc(F)cc3)cc21 [Compound 5, 2-((2-(6-(4-fluorophenethoxy)-1H-indol-1-yl)ethyl)amino)-2-methylpropan-1-ol] | 2.0
18 | CC(CO)(CO)NCCn1ccc2ccc(C(=O)NCc3ccc(F)cc3)cc21 [Compound 14, 1-(2-((1,3-dihydroxy-2-methylpropan-2-yl)amino)ethyl)-N-(4-fluorobenzyl)-1H-indole-6-carboxamide] | 2.0
19 | CC(CO)(CO)NCCn1ccc2ccc(NCCc3ccc(F)cc3)cc21 [Compound 13, 2-((2-(6-((4-fluorophenethyl)amino)-1H-indol-1-yl)ethyl)amino)-2-methylpropane-1,3-diol] | 2.0
20 | OCC(CO)NCCn1ccc2ccc(OCCc3ccc(F)cc3)cc21 [Compound 6, 2-((2-(6-(4-fluorophenethoxy)-1H-indol-1-yl)ethyl)amino)propane-1,3-diol] | 4.0
21 | COCC(C)(COC)NCCn1ccc2ccc(OCCc3ccc(F)cc3)cc21 [Compound 12, N-(2-(6-(4-fluorophenethoxy)-1H-indol-1-yl)ethyl)-1,3-dimethoxy-2-methylpropan-2-amine] | 9.0
22 | OCCNCCn1ccc2ccc(OCCc3ccc(F)cc3)cc21 [Compound 9, 2-((2-(6-(4-fluorophenethoxy)-1H-indol-1-yl)ethyl)amino)ethan-1-ol] | 4.0
23 | C[C@H](CO)NCCn1ccc2ccc(OCCc3ccc(F)cc3)cc21 [Compound 8, (R)-2-((2-(6-(4-fluorophenethoxy)-1H-indol-1-yl)ethyl)amino)propan-1-ol] | 2.0
24 | CC(C)(C)NCCn1ccc2ccc(OCCc3ccc(F)cc3)cc21 [Compound 10, N-(2-(6-(4-fluorophenethoxy)-1H-indol-1-yl)ethyl)-2-methylpropan-2-amine] | 2.0
25 | Fc1ccc(CCOc2ccc3ccn(CCCN4CCOCC4)c3c2)cc1 [Compound 11, 4-(3-(6-(4-fluorophenethoxy)-1H-indol-1-yl)propyl)morpholine] | 20
